Among the data in patent publication US20250082630A1, “METHODS OF TREATING BRAIN TUMOURS AND NEUROBLASTOMAS” (AstraZeneca AB, priority 2021, published 2025) are IC50 and efflux ratio values, retold here.

Series [1] deals with PARP3 (Homo sapiens (Human), UniProt Q9Y6F1). The series is described as follows: PARP fluorescence anisotropy binding assay, PARP3.
Protocol: Recombinant full length PARP3 protein was diluted to 100 nM with 50 mM Tris pH 8, 0.001% Triton X100, 10 mM MgCl2, 150 mM NaCl and incubated for four hours with an equivalent volume of 6 nM fluorescent probe diluted with 50 mM Tris pH 8, 0.001% Triton X100, 10 mM MgCl2, 150 mM NaCl. The final DMSO concentration of the probe was kept below 1% (v/v).
Series [2] has as its target PARP2 (Homo sapiens (Human), UniProt Q9UGN5). Nature of the series: PARP fluorescence anisotropy binding assay, PARP2. The procedure:
Recombinant full length PARP2 protein was diluted to 6 nM with 50 mM Tris pH 8, 0.001% Triton X100, 10 mM MgCl2, 150 mM NaCl and incubated for four hours with an equivalent volume of 2 nM fluorescent probe diluted with 50 mM Tris pH 8, 0.001% Triton X100, 10 mM MgCl2, 150 mM NaCl. The final DMSO concentration of the probe was kept below 1% (v/v).
Fluorescence anisotropy of the probe when bound to the proteins was measured using a BMG Pherastar FSX® in the presence of test compounds or solvent control and the effect on anisotropy determined. % inhibition values for different test compound concentrations were calculated and fitted to a four parameter logistic plot in order to determine the IC50 value.
Background: Polarisation of emitted light reports the rotation of a fluorescent probe.

Series [3] has as its system MDR1 and BCRP. Nature of the series: In vitro human transporter efflux (MDCK-MDR1-BCRP). Conditions: human, pH 7.4.
Protocol: MDCKII cells expressing MDR1 and BCRP were seeded onto polyethylene membranes in 96-well Transwell insert systems at a density to form a confluent cell monolayer. […] The final percent volume of the organic solvent was less than 1%. Permeation of the test compounds from A to B direction and from B to A direction was determined over a 90-min incubation at 37° C. and 5% CO2 with a relative humidity of 95%. At the end of the incubation, samples from the apical and basolateral side were taken and then precipitated with cold acetonitrile containing internal standard. After centrifugation at 4000 rpm, the supernatant was diluted with 0.1% formic acid aqueous solution and quantified by LC-MS/MS. The integrity of the cell monolayers was confirmed by using the marker Lucifer yellow.
The permeability coefficient (1×10-6 cm/s) was calculated using the following equation
(1) The Efflux Ratio was Calculated Using the Following Equation
Efflux ratio=Papp(B to A)/Papp(A to B)
(2) where dCr/dt is the cumulative concentration of the compound in the receiver chamber as a function of time (in μM/s); Vr is the solution volume in the receiver chamber (0.1 ml on the apical side and 0.3 ml on the basolateral side); A is the surface area for the transport, that is, 0.11 cm2 for the area of the monolayer; and C0 is the initial concentration in the donor chamber (in μM).
Series [4] deals with PARP6 (Homo sapiens (Human), UniProt Q2NL67). The series is described as follows: PARP fluorescence anisotropy binding assay, PARP6. The procedure:
Recombinant full length GST tagged PARP6 protein was diluted to 160 nM with 50 mM Tris pH 8, 0.001% Triton X100, 10 mM MgCl2, 150 mM NaCl and incubated for four hours with an equivalent volume of 6 nM fluorescent probe diluted with 50 mM Tris pH 8, 0.001% Triton X100, 10 mM MgCI2, 150 mM NaCl. The final DMSO concentration of the probe was kept below 1% (v/v).
Fluorescence anisotropy of the probe when bound to the proteins was measured using a BMG Pherastar FSX® in the presence of test compounds or solvent control and the effect on anisotropy determined. % inhibition values for different test compound concentrations were calculated and fitted to a four parameter logistic plot in order to determine the IC50 value. Where necessary, the compound K, can be determined from the IC50 value using a Munson Rodbard equation defined in Anal Biochem. 1980 Sep. 1; 107(1):220-39 and is based on the known KD of the probe binding to the relevant PARP protein

In series [5] the target is PARP5a (Homo sapiens (Human), UniProt O95271). The series is described as follows: PARP fluorescence anisotropy binding assay, PARP5a.
PARP5a, sequence (O95271 1112-1317): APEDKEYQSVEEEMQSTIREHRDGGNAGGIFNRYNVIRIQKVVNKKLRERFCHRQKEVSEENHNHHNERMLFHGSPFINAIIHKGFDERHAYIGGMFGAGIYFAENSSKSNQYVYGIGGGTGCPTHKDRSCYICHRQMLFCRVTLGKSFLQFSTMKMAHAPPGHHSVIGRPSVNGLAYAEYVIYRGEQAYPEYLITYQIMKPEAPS
Protocol: Recombinant PARP5a binding domain was diluted to 160 nM with 50 mM Tris pH 8, 0.001% Triton X100, 10 mM MgCl2, 150 mM NaCl and incubated for four hours with an equivalent volume of 6 nM fluorescent probe diluted with 50 mM Tris pH 8, 0.001% Triton X100, 10 mM MgCl2, 150 mM NaCl. The final DMSO concentration of the probe was kept below 1% (v/v).
Series [6] concerns the target PARP1 (Homo sapiens (Human), UniProt P09874). Nature of the series: PARP fluorescence anisotropy binding assay, PARP1.
Protocol: Recombinant full length 6HIS tagged PARP1 protein was diluted to 6 nM with 50 mM Tris pH 8, 0.001% Triton X100, 10 mM MgCl2, 150 mM NaCl and incubated for four hours with an equivalent volume of 2 nM fluorescent probe diluted with 50 mM Tris pH 8, 0.001% Triton X100, 10 mM MgCl2, 150 mM NaCl. The final DMSO concentration of the probe was kept below 1% (v/v).

Structures are written as SMILES.

PARP2, sequence (Q9UGN5 whole entry): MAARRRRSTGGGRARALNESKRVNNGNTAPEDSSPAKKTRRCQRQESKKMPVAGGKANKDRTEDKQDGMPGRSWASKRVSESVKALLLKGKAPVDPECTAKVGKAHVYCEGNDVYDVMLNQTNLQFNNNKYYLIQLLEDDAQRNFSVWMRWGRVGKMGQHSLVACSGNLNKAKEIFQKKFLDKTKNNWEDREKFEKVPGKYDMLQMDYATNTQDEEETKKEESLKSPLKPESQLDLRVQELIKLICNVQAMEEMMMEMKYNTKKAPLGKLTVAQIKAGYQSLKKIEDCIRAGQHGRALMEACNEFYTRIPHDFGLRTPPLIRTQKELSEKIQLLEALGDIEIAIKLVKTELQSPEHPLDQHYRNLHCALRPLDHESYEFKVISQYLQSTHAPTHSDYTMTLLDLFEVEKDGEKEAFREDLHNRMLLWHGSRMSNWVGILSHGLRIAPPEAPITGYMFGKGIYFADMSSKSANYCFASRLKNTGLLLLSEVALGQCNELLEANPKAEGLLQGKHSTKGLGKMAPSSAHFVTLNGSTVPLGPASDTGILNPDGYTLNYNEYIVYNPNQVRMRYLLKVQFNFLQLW
PARP6, sequence (Q2NL67 whole entry): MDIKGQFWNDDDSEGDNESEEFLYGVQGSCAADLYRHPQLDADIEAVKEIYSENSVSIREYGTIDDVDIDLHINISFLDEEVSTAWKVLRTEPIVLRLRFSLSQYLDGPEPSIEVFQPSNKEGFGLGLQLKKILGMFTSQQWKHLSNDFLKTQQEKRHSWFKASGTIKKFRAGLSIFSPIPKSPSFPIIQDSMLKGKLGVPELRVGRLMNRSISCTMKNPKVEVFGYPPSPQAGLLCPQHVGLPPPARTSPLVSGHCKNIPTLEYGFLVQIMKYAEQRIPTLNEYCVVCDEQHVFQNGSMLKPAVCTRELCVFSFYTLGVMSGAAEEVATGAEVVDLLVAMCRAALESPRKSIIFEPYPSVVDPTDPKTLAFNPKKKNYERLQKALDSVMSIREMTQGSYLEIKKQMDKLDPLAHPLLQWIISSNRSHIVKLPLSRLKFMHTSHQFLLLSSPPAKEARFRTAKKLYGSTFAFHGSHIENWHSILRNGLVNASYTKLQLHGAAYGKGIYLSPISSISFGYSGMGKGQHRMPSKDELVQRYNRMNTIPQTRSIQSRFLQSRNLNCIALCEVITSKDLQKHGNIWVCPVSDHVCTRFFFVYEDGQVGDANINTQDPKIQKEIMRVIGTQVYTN
PARP3, sequence (Q9Y6F1 whole entry): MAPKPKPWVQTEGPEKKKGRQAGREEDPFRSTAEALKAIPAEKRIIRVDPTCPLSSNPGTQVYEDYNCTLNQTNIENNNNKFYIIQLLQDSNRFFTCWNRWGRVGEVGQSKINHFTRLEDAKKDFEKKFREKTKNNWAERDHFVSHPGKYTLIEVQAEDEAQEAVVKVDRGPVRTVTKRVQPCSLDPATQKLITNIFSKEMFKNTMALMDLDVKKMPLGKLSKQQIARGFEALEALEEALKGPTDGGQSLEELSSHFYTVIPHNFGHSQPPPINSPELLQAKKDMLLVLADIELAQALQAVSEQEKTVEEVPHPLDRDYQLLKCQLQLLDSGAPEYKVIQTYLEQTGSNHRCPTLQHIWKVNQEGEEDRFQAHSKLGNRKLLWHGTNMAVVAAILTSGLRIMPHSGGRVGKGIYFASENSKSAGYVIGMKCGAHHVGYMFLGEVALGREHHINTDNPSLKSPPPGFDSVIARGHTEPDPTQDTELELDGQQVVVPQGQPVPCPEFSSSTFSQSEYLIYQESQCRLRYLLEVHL
PARP1, sequence (P09874 whole entry): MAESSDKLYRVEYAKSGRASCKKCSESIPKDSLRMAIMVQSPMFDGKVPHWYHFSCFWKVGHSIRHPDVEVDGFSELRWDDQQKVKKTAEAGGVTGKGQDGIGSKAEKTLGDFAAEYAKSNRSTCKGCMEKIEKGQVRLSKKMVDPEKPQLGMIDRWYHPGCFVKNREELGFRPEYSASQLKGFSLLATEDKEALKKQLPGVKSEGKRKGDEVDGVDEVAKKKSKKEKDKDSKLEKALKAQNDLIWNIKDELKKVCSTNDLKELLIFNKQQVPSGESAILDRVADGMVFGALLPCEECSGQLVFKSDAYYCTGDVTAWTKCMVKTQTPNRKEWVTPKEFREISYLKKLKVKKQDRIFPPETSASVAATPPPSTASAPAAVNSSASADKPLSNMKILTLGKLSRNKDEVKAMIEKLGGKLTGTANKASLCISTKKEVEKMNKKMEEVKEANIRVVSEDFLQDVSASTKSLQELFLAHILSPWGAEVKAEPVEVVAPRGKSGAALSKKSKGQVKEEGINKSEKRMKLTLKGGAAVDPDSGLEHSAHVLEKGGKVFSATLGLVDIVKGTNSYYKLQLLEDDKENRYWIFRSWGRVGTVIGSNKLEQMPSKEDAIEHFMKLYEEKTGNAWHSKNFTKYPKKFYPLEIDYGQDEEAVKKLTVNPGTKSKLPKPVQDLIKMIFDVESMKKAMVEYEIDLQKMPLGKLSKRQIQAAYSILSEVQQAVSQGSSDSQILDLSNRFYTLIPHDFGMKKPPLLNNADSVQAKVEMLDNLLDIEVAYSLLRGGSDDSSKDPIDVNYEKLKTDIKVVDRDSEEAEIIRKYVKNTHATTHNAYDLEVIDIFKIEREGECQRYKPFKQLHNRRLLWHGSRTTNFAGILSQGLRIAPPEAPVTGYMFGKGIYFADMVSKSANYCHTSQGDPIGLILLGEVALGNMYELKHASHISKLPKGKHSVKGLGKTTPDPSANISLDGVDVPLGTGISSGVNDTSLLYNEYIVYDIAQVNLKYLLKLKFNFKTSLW

By IC50 is commonly meant the concentration at which inhibition is half-maximal. High values mean lower potency, low ones higher potency. The term efflux ratio denotes the permeability from basolateral to apical divided by that in the opposite direction, in the common usage. For the molecule `CNC(=O)c1ccc(N2CCN(Cc3ccc4nc(C)c(=O)[nH]c4c3C)CC2)c(Cl)n1` [Example 3, 6-chloro-5-[4-[(2,5-dimethyl-3-oxo-4H-quinoxalin-6-yl)methyl]piperazin-1-yl]-N-methyl-pyridine-2-carboxamide], the 50% inhibitory concentration (IC50) was above 100 µM in series [1]; above 100 µM in series [2]; above 100 µM in series [4]; above 100 µM in series [5]; 0.003 µM in series [6]. The efflux ratio at 90 min in series [3] came out at 1.3.

As for `CCc1nc2ccc(CN3CCN(c4ccc(C(=O)NC)nc4F)CC3)c(Cl)c2[nH]c1=O` [Example 9, 5-[4-[(5-chloro-2-ethyl-3-oxo-4H-quinoxalin-6-yl)methyl]piperazin-1-yl]-6-fluoro-N-methyl-pyridine-2-carboxamide], the efflux ratio at 90 min in series [3] came to 0.4. The same molecule yielded an IC50 in series [6] of 0.004 µM.

As for `CNC(=O)c1ccc(N2CCN(Cc3ccc4nc(C(C)(F)F)c(=O)[nH]c4c3F)CC2)c(C)n1` [Example 19, 5-[4-[[2-(1,1-difluoroethyl)-5-fluoro-3-oxo-4H-quinoxalin-6-yl]methyl]piperazin-1-yl]-N,6-dimethyl-pyridine-2-carboxamide], the results for the IC50 in series [2] and in series [6] were 40 µM and 0.013 µM, respectively. Moreover, in series [3], the efflux ratio at 90 min amounted to 2.4.

`CNC(=O)c1ccc(N2CCN(Cc3ccc4nc(C)c(=O)[nH]c4c3F)CC2)c(C(F)F)n1` [Example 21, 6-(difluoromethyl)-5-[4-[(5-fluoro-2-methyl-3-oxo-4H-quinoxalin-6-yl)methyl]piperazin-1-yl]-N-methyl-pyridine-2-carboxamide]: the half-inhibitory concentration (IC50) in series [1] was 5.8 µM; in series [2], above 100 µM; in series [4], above 100 µM; in series [5], above 100 µM; in series [6] it was 0.007 µM. Further, in series [3], the efflux ratio at 90 min worked out at 1.6.

In the case of `CCc1nc2ccc(CN3CCN(c4ccc(C(=O)NC)nc4C(F)F)CC3)c(F)c2[nH]c1=O` [Example 24, 6-(difluoromethyl)-5-[4-[(2-ethyl-5-fluoro-3-oxo-4H-quinoxalin-6-yl)methyl]piperazin-1-yl]-N-methyl-pyridine-2-carboxamide], the concentration for half-maximal inhibition (IC50) in series [1] is above 100 µM; in series [2] it was above 81 µM; in series [4], above 100 µM; in series [5], above 100 µM; in series [6] it was 0.006 µM. For the same molecule, the efflux ratio at 90 min in series [3] worked out at 1.1.

On to `CCc1nc2ccc(CN3CCN(c4ccc(C(=O)NC)nc4Cl)CC3)c(F)c2[nH]c1=O` [Example 28, 6-chloro-5-[4-[(2-ethyl-5-fluoro-3-oxo-4H-quinoxalin-6-yl)methyl]piperazin-1-yl]-N-methyl-pyridine-2-carboxamide], for which the IC50 in series [1] was above 100 µM; in series [2] it was above 100 µM; in series [4], above 100 µM; in series [5], above 100 µM; in series [6], 0.005 µM. Also, in series [3], the efflux ratio at 90 min stood at 0.8.

Consider `CNC(=O)c1ccc(N2CCN(Cc3ccc4nc(C)c(=O)[nH]c4c3F)CC2)c(Cl)n1` [Example 30, 6-chloro-5-[4-[(5-fluoro-2-methyl-3-oxo-4H-quinoxalin-6-yl)methyl]piperazin-1-yl]-N-methyl-pyridine-2-carboxamide], for which the half-inhibitory concentration (IC50) in series [1] was above 100 µM; in series [2], above 100 µM; in series [4] it was above 100 µM; in series [5] it was above 100 µM; in series [6], 0.006 µM. The efflux ratio at 90 min in series [3] was determined as 1.8.

For `CNC(=O)c1ccc(N2CCN(Cc3ccc4nc(C)c(=O)[nH]c4c3F)CC2)cn1` [Example 32, 5-[4-[(5-fluoro-2-methyl-3-oxo-4H-quinoxalin-6-yl)methyl]piperazin-1-yl]-N-methyl-pyridine-2-carboxamide], the IC50 was above 100 µM in series [1]; above 100 µM in series [2]; above 100 µM in series [4]; above 100 µM in series [5]; 0.007 µM in series [6].

Consider `CNC(=O)c1ccc(N2CCN(Cc3ccc4nc(C(F)F)c(=O)[nH]c4c3F)CC2)c(C)n1` [Example 37, 5-[4-[[2-(difluoromethyl)-5-fluoro-3-oxo-4H-quinoxalin-6-yl]methyl]piperazin-1-yl]-N,6-dimethyl-pyridine-2-carboxamide], for which the IC50 in series [2] was determined as 57 µM; in series [6], 0.026 µM. Besides, in series [3], the efflux ratio at 90 min came to 5.

As for `CNC(=O)c1ccc(N2CCN(Cc3ccc4nc(OC)c(=O)[nH]c4c3F)CC2)cn1` [Example 38, 5-[4-[(5-fluoro-2-methoxy-3-oxo-4H-quinoxalin-6-yl)methyl]piperazin-1-yl]-N-methyl-pyridine-2-carboxamide], the IC50 in series [1] was above 100 µM; in series [2], 21 µM; in series [4], above 100 µM; in series [5], above 100 µM; in series [6] it was 0.012 µM.

Regarding `CNC(=O)c1ccc(N2CCN(Cc3ccc4nc(OC)c(=O)[nH]c4c3F)CC2)c(F)n1` [Example 39, 6-fluoro-5-[4-[(5-fluoro-2-methoxy-3-oxo-4H-quinoxalin-6-yl)methyl]piperazin-1-yl]-N-methyl-pyridine-2-carboxamide], the IC50 in series [1] is above 100 µM; in series [2] it was above 100 µM; in series [4] it was above 100 µM; in series [5] it was above 100 µM; in series [6], 0.006 µM. For the same molecule, the efflux ratio at 90 min in series [3] is 1.9.

`CNC(=O)c1ccc(N2CCN(Cc3ccc4nc(OC)c(=O)[nH]c4c3F)CC2)c(C)n1` [Example 40, 5-[4-[(5-fluoro-2-methoxy-3-oxo-4H-quinoxalin-6-yl)methyl]piperazin-1-yl]-N,6-dimethyl-pyridine-2-carboxamide]: the half-maximal inhibitory concentration (IC50) is above 100 µM in series [1]; above 100 µM in series [2]; above 100 µM in series [4]; 13 µM in series [5]; 0.011 µM in series [6]. Also, the efflux ratio at 90 min in series [3] was determined as 2.

`CNC(=O)c1ccc(N2CCN(Cc3ccc4nc(OC)c(=O)[nH]c4c3F)CC2)c(Cl)n1` [Example 41, 6-chloro-5-[4-[(5-fluoro-2-methoxy-3-oxo-4H-quinoxalin-6-yl)methyl]piperazin-1-yl]-N-methyl-pyridine-2-carboxamide]: the IC50 in series [1] was above 100 µM; in series [2], above 100 µM; in series [4] it was above 100 µM; in series [5] it was above 100 µM; in series [6], 0.005 µM. In addition, the efflux ratio at 90 min in series [3] was determined as 2.4.

Consider `CCNC(=O)c1ccc(N2CCN(Cc3ccc4nc(C)c(=O)[nH]c4c3F)CC2)c(F)n1` [Example 45, N-ethyl-6-fluoro-5-[4-[(5-fluoro-2-methyl-3-oxo-4H-quinoxalin-6-yl)methyl]piperazin-1-yl]pyridine-2-carboxamide], for which the IC50 in series [2] was above 100 µM; in series [6], 0.006 µM. For the same molecule, the efflux ratio at 90 min in series [3] was determined as 1.5.

As to `CNC(=O)c1ccc(N2CCN(Cc3ccc4nc(C(F)(F)F)c(=O)[nH]c4c3F)CC2)c(C)n1` [Example 47, 5-[4-[[5-fluoro-3-oxo-2-(trifluoromethyl)-4H-quinoxalin-6-yl]methyl]piperazin-1-yl]-N,6-dimethyl-pyridine-2-carboxamide], the IC50 in series [1] was above 100 µM; in series [2] it was above 100 µM; in series [4], above 100 µM; in series [5], above 100 µM; in series [6] it was 0.076 µM.

In the case of `CNC(=O)c1ccc(N2CCN(Cc3ccc4nc(C(F)(F)F)c(=O)[nH]c4c3F)CC2)c(F)n1` [Example 48, 6-fluoro-5-[4-[[5-fluoro-3-oxo-2-(trifluoromethyl)-4H-quinoxalin-6-yl]methyl]piperazin-1-yl]-N-methyl-pyridine-2-carboxamide], the IC50 in series [1] was above 100 µM; in series [2] it was 26 µM; in series [4] it was above 100 µM; in series [5] it was above 100 µM; in series [6], 0.039 µM. For the same molecule, the efflux ratio at 90 min in series [3] was 8.8.

With `CNC(=O)c1ccc(N2CCN(Cc3ccc4nc(C(F)(F)F)c(=O)[nH]c4c3F)CC2)c(Cl)n1` [Example 49, 6-chloro-5-[4-[[5-fluoro-3-oxo-2-(trifluoromethyl)-4H-quinoxalin-6-yl]methyl]piperazin-1-yl]-N-methyl-pyridine-2-carboxamide], the IC50 in series [1] was above 29 µM; in series [2], 11 µM; in series [4] it was above 100 µM; in series [5] it was above 100 µM; in series [6], 0.043 µM.

Turning to `CNC(=O)c1ccc(N2CCN(Cc3ccc4nc(C)c(=O)[nH]c4c3C)CC2)c(C(F)F)n1` [Example 60, 6-(difluoromethyl)-5-[4-[(2,5-dimethyl-3-oxo-4H-quinoxalin-6-yl)methyl]piperazin-1-yl]-N-methyl-pyridine-2-carboxamide], the 50% inhibitory concentration (IC50) in series [2] was above 100 µM; in series [6], 0.023 µM.
